Results from patent US20260374773A1, “MULTI-CYCLIC IRAK AND FLT3 INHIBITING COMPOUNDS AND USES THEREOF” (CHILDREN'S HOSPITAL MEDICAL CENTER, priority 2022, published 2026).

Assays:
MOLM14 (D835Y) cells = experiment: Combination drug screening with venetoclax, Cell Titer Glo, MOLM14 (D835Y); assay type: cell-based; design: key: relative excess HSA score; more negative = greater synergy; conditions: 10 × 10, 48 h, negative = synergy
Procedure: (§1) Combination drug therapy has the potential to produce enhanced effects with lower side effects not obtained using either agent alone, or beyond the additive effect of the different concentrations of the two different agents. To determine whether enhanced effects are observed in different drug combinations, combination drug screening was performed as previously described (Mathews-Griner, L. A. et al., Proc. Nat. Acad. Sci., 2014, 111:2349-2354; Lin, G. L. et al., Sci. Trans. Med., 2019, 11: eaaw0064). Briefly, 10 nL of compounds were acoustically dispensed into 1536-well white polystyrene tissue culture-treated plates with an Echo 550 acoustic liquid handler (Labcyte). Cells were then added to compound-containing plates at a density of 500-cells/well in 5 μL of medium. A 10-point custom concentration range was used for all listed drugs in a 10×10 matrix. Plates were incubated for 48 hours at standard incubator conditions covered by a stainless steel gasketed lid to prevent evaporation. 48 hours post compound addition, 3 μL of Cell Titer Glo (Promega) were added to each well and plates were incubated at room temperature for 15 minutes with the stainless-steel lid in place. Luminescence readings were taken using a Viewlux imager (PerkinElmer) with a 2 second exposure time per plate.
(§2) Each compound was studied in combination with venetoclax at two concentration ranges of compound and venetoclax, respectively (for a total of 4 combination dose-response curves). The dose combinations that yielded the optimal synergy score, measured as excess HSA, which are reported in Tables 23 and 24 for the FLT3 mutant cell line MOLM14 (D835Y) and the FLT3 WT cell line THP1, respectively.
(§3) Table 23 provides combination outcomes for representative compounds with venetoclax in the Cell Titer Glo assay in MOLM14 (D835Y) cells (a FLT3 mutant cell line) at 48 hours. The table provides relative excess HSA values for compounds of the disclosure used in combination with venetoclax compared to gilteritinib hemifumarate used in combination with venetoclax. A negative excess HSA score illustrates that the drug combination is better than either drug alone, wherein greater synergy is observed at larger negative values of the excess HSA score.
(§4) Excess HSA is a measure of synergy vs. additivity or antagonism, wherein a negative excess HSA value is indicative of synergy. More information on excess HSA scores can be found in Vlot, Anna H. C. et al., Drug Discovery Today, 2019, 24(12):2286-2298. […] However, different methodologies may yield different numerical scores, and different definitions of what constitutes a deviation from mere additivity vs true drug synergy. The large negative excess HSA values provided in Tables 23 and 24 illustrate that multiple members of this structural class synergize with venetoclax. The degree to which combination therapy has to potential to produce enhanced effects with lower side effects not obtained using either agent alone, or beyond the additive effect of the different concentrations of the two different agents depends on the nature of the drugs used in the combination, and the specific doses/concentrations at which they are ultimately used in the therapeutic regimen. A negative excess HSA score illustrates that the drug combination is better than either drug alone (at the concentrations being studied). […] However, the utility in certain drug combinations vs. others should not be distinguished based on cutoffs between excess HSA scores, because the score itself is only a relative indicator that is completely dependent on experimental design and is not an absolute number. Furthermore, the concept of what constitutes clinically meaningful drug synergy is something that is still being debated, not only between pharmacologists and physicians, but amongst pharmacologists themselves. […]

THP1 cells = experiment: Combination drug screening with venetoclax, Cell Titer Glo, THP1; assay type: cell-based; conditions: 10 × 10, 48 h, negative = synergy
Procedure: as §1, §2
as §3, with “24” for “23”, “THP1 (FLT3 wild type)” for “MOLM14 (D835Y)”, “cells” for “cells (a FLT3 mutant cell line)”
as §4

[1] = compound 0-0.1 μM, venetoclax 0-20 μM
[2] = compound 0-10 μM, venetoclax 0-2 μM
[3] = compound 0-10 μM, venetoclax 0-20 μM

Row | SMILES | Excess HSA (MOLM14 (D835Y) cells; [1]) | Excess HSA (THP1 cells; [2]) | Excess HSA (THP1 cells; [3]) | other results
1 | COc1cn2ncc(-c3nc(N[C@@H]4CCCNC4)ccc3F)c2nc1C1CC1 [Compound 2, (R)-6-(5-cyclopropyl-6-methoxypyrazolo[1,5-a]pyrimidin-3-yl)-5-fluoro-N-(piperidin-3-yl)pyridin-2-amine] | −1843 |  |  | Excess HSA (THP1 cells; [1]): −990.8
2 | COc1cn2ncc(-c3ccnc(N[C@H]4CNCC[C@@H]4F)n3)c2nc1C(C)(C)O [Compound 3a, 2-(3-(2-(((3S,4S)-4-fluoropiperidin-3-yl)amino)pyrimidin-4-yl)-6-methoxypyrazolo[1,5-a]pyrimidin-5-yl)propan-2-ol] |  | −1645 |  | Excess HSA (MOLM14 (D835Y) cells; compound 0-0.2 μM, venetoclax 0-20 μM): −1621
3 | COc1cn2ncc(-c3nc(N[C@H]4CNCC[C@@H]4F)ncc3F)c2nc1C(C)(C)O [Compound 6a, 2-(3-(5-fluoro-2-(((3S,4S)-4-fluoropiperidin-3-yl)amino)pyrimidin-4-yl)-6-methoxypyrazolo[1,5-a]pyrimidin-5-yl)propan-2-ol] | −1057 | −786.4 |  | 
4 | COc1cn2ncc(-c3ccnc(N[C@H]4CNCC[C@@H]4F)n3)c2nc1C1CC1 [Compound 7a, 4-(5-cyclopropyl-6-methoxypyrazolo[1,5-a]pyrimidin-3-yl)-N-((3S,4S)-4-fluoropiperidin-3-yl)pyrimidin-2-amine] | −1364 |  | −1947 | 
5 | COc1cn2ncc(-c3cncc(N[C@H]4CNCC[C@@H]4F)n3)c2nc1C1CC1 [Compound 12a, 6-(5-cyclopropyl-6-methoxypyrazolo[1,5-a]pyrimidin-3-yl)-N-((3S,4S)-4-fluoropiperidin-3-yl)pyrazin-2-amine] | −1697 |  | −1869 | 
6 | COc1cn2ncc(-c3nc(N[C@@H]4CCCNC4)ncc3F)c2nc1C1CC1 [Compound 14a, (R)-4-(5-cyclopropyl-6-methoxypyrazolo[1,5-a]pyrimidin-3-yl)-5-fluoro-N-(piperidin-3-yl)pyrimidin-2-amine] | −559.2 |  |  | Excess HSA (THP1 cells; [1]): −1210
7 | COc1cn2ncc(-c3nc(N[C@H]4CNCC[C@@H]4F)ncc3F)c2nc1C1CC1 [Compound 15a, 4-(5-cyclopropyl-6-methoxypyrazolo[1,5-a]pyrimidin-3-yl)-5-fluoro-N-((3S,4S)-4-fluoropiperidin-3-yl)pyrimidin-2-amine] | −831 | −861.1 |  | 
8 | COc1cn2ncc(-c3nc(N[C@H]4CNCC[C@@H]4F)c(F)cc3F)c2nc1C1CC1 [Compound 22, 6-(5-cyclopropyl-6-methoxypyrazolo[1,5-a]pyrimidin-3-yl)-3,5-difluoro-N-((3S,4S)-4-fluoropiperidin-3-yl)pyridin-2-amine] | −992.2 | −850.4 |  | 
9 | COc1cn2ncc(-c3nc(N[C@H]4CNC[C@@H]4F)c(F)cc3F)c2nc1C1CC1 [Compound 24, 6-(5-cyclopropyl-6-methoxypyrazolo[1,5-a]pyrimidin-3-yl)-3,5-difluoro-N-((3S,4S)-4-fluoropyrrolidin-3-yl)pyridin-2-amine] |  |  | −1766 | Excess HSA (MOLM14 (D835Y) cells; compound 0-0.1 μM, venetoclax 0-2 μM): −1472
